The target in the experiment is Caspase recruitment domain-containing protein 9 (Homo sapiens) + B-cell lymphoma/leukemia 10 (Homo sapiens) (UniProt Q9H257+O95999). The experiment in a line: disruptors of CARD9-BCL10 binding, dose response, selectivity assay for CARD9-TRIM62 disruptor project, cell lysate, HEK293FT lysates, Luminex bead ELISA (AID 1259340). The settings on record: for activity change, negative = inhibition: at 80 µM (top of the series).

Consider 39 compounds from PubChem BioAssay AID1259340 (Broad Institute, 2017).

Active and inactive are the calls of the source.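 Rule for the calls: active = AC50 no more than ten times the top concentration tested; inconclusive = flat fit with inhibition between 30% and 70%, or unusable fit; inactive = AC50 beyond ten times the top concentration.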

Sequence of Caspase recruitment domain-containing protein 9 (Homo sapiens) + B-cell lymphoma/leukemia 10 (Homo sapiens) (O95999 whole entry, looked up, the tested form may be a part): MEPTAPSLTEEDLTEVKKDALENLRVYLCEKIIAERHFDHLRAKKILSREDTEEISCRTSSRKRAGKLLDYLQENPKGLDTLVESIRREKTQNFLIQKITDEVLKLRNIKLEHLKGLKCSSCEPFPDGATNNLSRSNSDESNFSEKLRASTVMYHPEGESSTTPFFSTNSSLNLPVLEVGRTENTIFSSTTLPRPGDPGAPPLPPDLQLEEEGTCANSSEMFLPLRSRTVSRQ
Sequence of Caspase recruitment domain-containing protein 9 (Homo sapiens) + B-cell lymphoma/leukemia 10 (Homo sapiens) (Q9H257 whole entry, looked up, the tested form may be a part): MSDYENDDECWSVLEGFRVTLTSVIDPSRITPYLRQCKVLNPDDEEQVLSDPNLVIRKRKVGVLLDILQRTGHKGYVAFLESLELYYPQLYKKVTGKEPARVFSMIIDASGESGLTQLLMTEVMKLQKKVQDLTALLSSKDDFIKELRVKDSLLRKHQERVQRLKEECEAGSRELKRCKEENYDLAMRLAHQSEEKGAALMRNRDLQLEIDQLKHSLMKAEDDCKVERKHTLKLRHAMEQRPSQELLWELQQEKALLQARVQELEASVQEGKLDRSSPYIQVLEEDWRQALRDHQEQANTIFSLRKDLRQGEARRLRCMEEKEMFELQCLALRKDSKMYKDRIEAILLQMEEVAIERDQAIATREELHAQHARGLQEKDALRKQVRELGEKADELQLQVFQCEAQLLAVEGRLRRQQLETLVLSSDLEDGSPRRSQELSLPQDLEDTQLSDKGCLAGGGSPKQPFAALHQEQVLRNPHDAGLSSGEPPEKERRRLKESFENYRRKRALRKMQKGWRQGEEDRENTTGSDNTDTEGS

`CCCN1CCCn2nc(CNC(=O)[C@H]3CC[C@@H](N)C3)cc2C1`: the “activity change, negative = inhibition” value was “inactive”.
Turning to `CC(C)(C)c1ccc(-c2nc(C#N)c(NCc3ccncc3)o2)cc1`, the “activity change, negative = inhibition” value is “inactive”.
Turning to `COc1ccc(-c2nnc(-c3nc(Nc4ccc(NC(C)=O)cc4)c4ccccc4n3)o2)cc1`, the half-maximal activity concentration (AC50) was 64.5 µM.
Turning to `O=C(O)C1Oc2cc3ccccc3cc2O1`, the AC50 is > 160 µM (inactive).
As to `O=S(=O)(c1ccccc1)N1CC2CN(Cc3ccc(O)cc3)C2C1` (centres undefined), the “activity change, negative = inhibition” value is “inactive”.
Regarding `O=[N+]([O-])c1ccc2nn(Cc3ccccc3)cc2c1`, the “activity change, negative = inhibition” value was “inactive”.
Regarding `O=C(Nc1nncs1)c1cc(-c2ccco2)nc2ccccc12`, the AC50 was 68.5 µM.
In the case of `O=S(=O)(Nc1nccs1)c1ccc(-n2cccc2)cc1`, the “activity change, negative = inhibition” value was “inactive”.
`Cc1ccc(Nc2nc(C(=O)Nc3ccc(Cl)cc3)nc3ccccc23)cc1`: the AC50 was > 160 µM (inactive).
As to `NC(=O)C1(N2CCCCC2)CCN(c2ccc(NC(=O)c3cccc(Cl)c3)cc2C(=O)O)CC1`, the “activity change, negative = inhibition” value was “inactive”.
For `NC(=O)C1(N2CCCCC2)CCN(c2ncc(NC(=O)c3ccccc3)cc2C(=O)O)CC1`, the “activity change, negative = inhibition” value is “inactive”.
Consider `Nc1ccc2ncccc2c1N`, for which the concentration at half-maximal activity (AC50) was 16.1 µM.
Regarding `O=C(Nc1ccc(OCC(=O)N2CCOCC2)cc1)c1cncc(Br)c1`, the “activity change, negative = inhibition” value is “inactive”.
On to `C=CC(=O)N1CCCC2(CCN(CCN3CCCC3)C2=O)C1` (centres undefined), for which the AC50 was 22.7 µM.
Consider `Cc1ccc(C(=O)Nc2ccc(N3CCC(C(N)=O)(N4CCCCC4)CC3)c(C(=O)O)c2)cc1`, for which the “activity change, negative = inhibition” value was “inactive”.
In the case of `O=C(NCC1CCCO1)c1cc(-c2ccco2)nc2ccccc12` (centres undefined), the AC50 was > 160 µM (inactive).
As to `NC(=O)C1(N2CCCCC2)CCN(c2ncc(NC(=O)c3ccc(Cl)cc3)cc2C(=O)O)CC1`, the “activity change, negative = inhibition” value is “inactive”.
`O=C(NCCc1ccco1)c1ccc(OCc2cn3ccccc3n2)cc1`: the “activity change, negative = inhibition” value is “inactive”.
Same read-out and setting: the entry for `COC[C@]1(O)CCN(C(=O)CCN(C)S(C)(=O)=O)CC1(C)C` is “inactive”; for `N#CNc1nc(O)cc(=O)[nH]1` it is “inactive”.
As for `O=C(Nc1nc(-c2ccco2)c(-c2ccco2)s1)C1CCC1`, the AC50 is > 160 µM (inactive).
With `O=S(=O)(c1ccc2nc(-c3ccco3)c(-c3ccco3)nc2c1)N1CCOCC1`, the half-maximal activity concentration (AC50) was 20.3 µM.
`Cc1cccc(Nc2nc(C(=O)Nc3cc(F)ccc3F)nc3ccccc23)c1`: the “activity change, negative = inhibition” value was “inactive”.
Take `Cc1cccc2nc(CSCc3ccco3)cn12`: the AC50 is > 160 µM (inactive).
On to `O=C(Nc1nc(-c2ccco2)c(-c2ccco2)s1)c1ccc(F)cc1F`, for which the AC50 is > 160 µM (inactive).
Still for that read-out and setting: the figure for `O=C(NC1CC1)c1cc(-c2ccco2)nc2ccccc12` is > 160 µM (inactive).
Consider `Cc1c(C(=O)OCC2CCCO2)[nH]c2c1C(=O)CC(c1ccco1)C2` (centres undefined), for which the “activity change, negative = inhibition” value is “inactive”.
In the case of `CC(C(=O)N1CCCC1)N1CCN(c2ccccc2O)CC1` (centres undefined), the “activity change, negative = inhibition” value was “inactive”.
Turning to `O=C(NCc1ccco1)c1c2c(nc3ccccc13)CCC2`, the AC50 was > 160 µM (inactive).
Regarding `NC(=O)C1(N2CCCCC2)CCN(c2ncc(NC(=O)c3cccs3)cc2C(=O)O)CC1`, the “activity change, negative = inhibition” value was “inactive”.
Still for that read-out and setting: the entry for `COCCC(=O)N1CCCC2(CCN(CCN3CCCC3)C2=O)C1` (centres undefined) is “inactive”.
In the case of `O=C(Nc1nccs1)c1cc(-c2ccco2)nc2ccccc12`, the AC50 was > 160 µM (inactive).
In the case of `Cc1cnc(C)c(N2CCN(C(=O)[C@H]3CC[C@@H](N)C3)CC2)n1`, the “activity change, negative = inhibition” value was “inactive”.
Same read-out and setting: for `CCN1CCOC(=O)C1CC(=O)Nc1cccc(C)c1` (centres undefined) the value was “inactive”.
As for `O=C(NCCCN1CCOCC1)c1cc(-c2ccco2)nc2ccccc12`, the “activity change, negative = inhibition” value is “inactive”.
As for `C(=C\c1ccco1)/c1nc2ccccc2[nH]1`, the AC50 was 58.6 µM.
For the compound `CCc1ccc(Nc2nc(C(=O)NCc3ccc(N(C)C)cc3)nc3ccccc23)cc1`, the concentration at half-maximal activity (AC50) is 7.97 µM.
Take `Cc1ccc(-c2nn(-c3ccccc3)cc2CN(Cc2ccccc2)C(=O)CCC(=O)O)o1`: the “activity change, negative = inhibition” value is “inactive”.
The same measure, in the same setting: for `O=C(Cn1c(=O)cc(C(=O)N2CCc3ccccc3C2)c2ccccc21)NCc1ccc2c(c1)OCO2` the value was “inactive”.

As usually defined, the AC50 is the midpoint of the concentration-response curve, whichever way the signal moves.
